The source of these data is PubChem BioAssay (NCI).

Test systems include OVCAR-8 ovarian; U251 CNS; OVCAR-3 ovarian; MALME-3M melanoma; UACC-62 melanoma; SR leukemia; HL-60(TB) leukemia; 786-0 renal; ACHN renal; OVCAR-4 ovarian.
What all share (experiment): NCI-60 cell line screen, 48 h

Several values for one entry are separate records, joined by “and”; a condition that tells them apart may be missing. Identical values can stand only once.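 Results reflect a 48-hour exposure of cells in 96-well plates to compound at five concentrations. GI50 = concentration required for 50% inhibition of growth. At the TGI there is no net growth.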

On to `CCOc1ccc(/C=C2/C(=O)N=C(N)N=C2N)cc1OCC`, for which the TGI in the test on OVCAR-8 ovarian, in the test with U251 CNS, in the test on OVCAR-3 ovarian, with MALME-3M melanoma, in the test on UACC-62 melanoma and in the test with SR leukemia was > 100 µM throughout. The TGI with HL-60(TB) leukemia, in the test on 786-0 renal, with ACHN renal and with OVCAR-4 ovarian was > 100 µM in each case.
In the case of `Cc1nn2c(-c3nc4cc(Cl)c(Cl)cc4[nH]3)c(-c3ccc(F)cc3)nc2s1`, the GI50 is 2.11 µM in the test with OVCAR-8 ovarian; 2.56 µM with U251 CNS; 3.26 µM with OVCAR-3 ovarian; 3.23 µM in the test with MALME-3M melanoma; 3.49 µM with UACC-62 melanoma; 42.9 µM in the test on SR leukemia. For the same compound, the GI50 was > 100 µM with HL-60(TB) leukemia, 1.75 µM in the test with 786-0 renal, 1.7 µM with ACHN renal and 0.257 µM in the test with OVCAR-4 ovarian. Also, the TGI in the test with OVCAR-8 ovarian was 15 µM; with U251 CNS it was 10.5 µM; in the test on OVCAR-3 ovarian it was 11.1 µM; in the test on MALME-3M melanoma, 15 µM; in the test with UACC-62 melanoma, > 46.3 µM; with SR leukemia, > 100 µM. The TGI in the test on HL-60(TB) leukemia was > 100 µM; in the test on 786-0 renal, 3.33 µM; with ACHN renal it was 5.25 µM; with OVCAR-4 ovarian, 0.781 µM.
With `N#Cc1cccc(C2C3=C(COC3=O)N(CCO)c3cc4c(cc32)CCC4)c1` (centres undefined), the GI50 with OVCAR-8 ovarian is 0.237 µM; in the test on U251 CNS it was 0.196 µM; in the test with OVCAR-3 ovarian it was 0.123 µM; in the test on MALME-3M melanoma, 0.173 µM; in the test with UACC-62 melanoma, 0.028 µM; in the test on SR leukemia, 0.0486 µM. In addition, the GI50 with HL-60(TB) leukemia is 0.132 µM; in the test with 786-0 renal it was 0.18 µM; in the test with ACHN renal, 0.277 µM; in the test on OVCAR-4 ovarian, 0.374 µM. Further, the TGI in the test with OVCAR-8 ovarian is > 50 µM; with U251 CNS, > 50 µM; in the test with MALME-3M melanoma, > 50 µM; in the test on UACC-62 melanoma, > 50 µM; in the test with SR leukemia it was > 50 µM; in the test with HL-60(TB) leukemia, 0.383 µM. Besides, the TGI in the test on 786-0 renal, in the test with ACHN renal and with OVCAR-4 ovarian was > 50 µM each time.
Take `Oc1c(I)cc(Cl)c2cccnc12`: the GI50 in the test with OVCAR-8 ovarian is 3.96 µM and 27.2 µM; in the test on U251 CNS, 3.9 µM and 3.65 µM; in the test on OVCAR-3 ovarian, 5.62 µM and 21.3 µM; in the test with MALME-3M melanoma, 3.97 µM and 16.5 µM; in the test on UACC-62 melanoma, 1.81 µM and 2.06 µM; with SR leukemia, 3.15 µM. In addition, the GI50 was 2.77 µM in the test on HL-60(TB) leukemia; 3.28 µM and 3.86 µM with 786-0 renal; 3.52 µM and 3.5 µM in the test with ACHN renal; 2.82 µM and 4.39 µM in the test on OVCAR-4 ovarian. Further, the TGI in the test with OVCAR-8 ovarian is > 100 µM and 99.3 µM; in the test on U251 CNS it was > 100 µM and 32.8 µM; in the test on OVCAR-3 ovarian, 65.1 µM and 61.5 µM; with MALME-3M melanoma it was 21.6 µM and 46.5 µM; in the test on UACC-62 melanoma it was 4.56 µM and 5.09 µM; with SR leukemia, 8.61 µM. Further, the TGI in the test on HL-60(TB) leukemia is 6.22 µM; in the test with 786-0 renal it was 12.6 µM and 17.6 µM; with ACHN renal, 21.7 µM and 23.7 µM; in the test on OVCAR-4 ovarian it was 13.8 µM and > 100 µM.
Regarding `O=C(/C=C/c1cccc(Oc2ccc(Cl)cc2)c1)c1ccccc1`, the GI50 in the test on OVCAR-8 ovarian was 26.9 µM; in the test with U251 CNS it was 21.1 µM; in the test on OVCAR-3 ovarian, 21.1 µM; in the test with MALME-3M melanoma it was 38.3 µM; in the test on UACC-62 melanoma, 26.8 µM; with SR leukemia it was 22.9 µM. Also, the GI50 in the test on HL-60(TB) leukemia was 23.4 µM; in the test on 786-0 renal, 19.9 µM; with ACHN renal, 16.9 µM; with OVCAR-4 ovarian, 75 µM. The TGI in the test on OVCAR-8 ovarian was determined as 66.9 µM; with U251 CNS, 42 µM; in the test on OVCAR-3 ovarian, 42.8 µM; in the test with MALME-3M melanoma it was 175 µM; with UACC-62 melanoma, 77 µM; with SR leukemia, 78.7 µM. For the same compound, the TGI stood at 58.4 µM in the test on HL-60(TB) leukemia, 43.6 µM in the test with 786-0 renal, 31.7 µM with ACHN renal and 234 µM in the test with OVCAR-4 ovarian.
Regarding `CC/C(=C(/c1ccc(/C=C/C(=O)O)cc1)c1ccc2[nH]ncc2c1)c1ccc(F)cc1Cl`, the GI50 in the test with OVCAR-8 ovarian was 14.2 µM; in the test with U251 CNS it was 9.44 µM; with OVCAR-3 ovarian it was 11.8 µM; in the test with MALME-3M melanoma, 18.6 µM; with UACC-62 melanoma, 5.85 µM; with SR leukemia, 4.03 µM. Further, the GI50 in the test on HL-60(TB) leukemia is 9.3 µM; in the test with 786-0 renal, 7.83 µM; in the test on ACHN renal it was 9.16 µM; in the test with OVCAR-4 ovarian, 12 µM. In addition, the TGI was 37.9 µM in the test on OVCAR-8 ovarian; 23.5 µM in the test on U251 CNS; 24.9 µM with OVCAR-3 ovarian; 44.9 µM in the test with MALME-3M melanoma; 21.8 µM in the test on UACC-62 melanoma; 29.4 µM with SR leukemia. In addition, the TGI was found to be 31 µM with HL-60(TB) leukemia, 21.1 µM in the test with 786-0 renal, 24.3 µM in the test on ACHN renal and 27.9 µM in the test on OVCAR-4 ovarian.
With `N=C(N)c1ccc(OCCCCCOc2ccc(C(=N)N)cc2)cc1`, the GI50 is 2.05 µM with OVCAR-8 ovarian; 2.79 µM in the test with U251 CNS; 5.25 µM with OVCAR-3 ovarian; 1.81 µM with MALME-3M melanoma; 2.02 µM in the test on UACC-62 melanoma; 13.3 µM and 13.6 µM and > 100 µM in the test with SR leukemia. For the same compound, the GI50 is 7.34 µM in the test on HL-60(TB) leukemia, 12 µM with 786-0 renal, 18.5 µM in the test with ACHN renal and 3.6 µM in the test on OVCAR-4 ovarian. Further, the TGI with OVCAR-8 ovarian was 12.9 µM and 22.5 µM and 86.6 µM; in the test with U251 CNS, 13.2 µM and 22.5 µM and 34.5 µM; in the test on OVCAR-3 ovarian it was 15.4 µM and 34.9 µM and 37 µM; in the test with MALME-3M melanoma, 8.4 µM and 35.3 µM; with UACC-62 melanoma, 9.38 µM and 23.6 µM and 29.6 µM; with SR leukemia it was 44.4 µM and 58.5 µM and > 100 µM. Further, the TGI in the test with HL-60(TB) leukemia is 24 µM and 56 µM and > 100 µM; with 786-0 renal, > 50 µM and 27.1 µM and 31.8 µM; in the test with ACHN renal, > 50 µM and 79.2 µM and > 100 µM; in the test on OVCAR-4 ovarian, 18.7 µM and 35.4 µM and 53.5 µM.
As to `CC1=NN(c2nc(N)nc(/C=C\c3ccccc3)n2)C(C)(C)C1`, the GI50 was 5.33 µM in the test with OVCAR-8 ovarian; 3.19 µM in the test on U251 CNS; 3.73 µM with OVCAR-3 ovarian; 10.7 µM with MALME-3M melanoma; 3.88 µM in the test with UACC-62 melanoma; 6.12 µM with SR leukemia. The GI50 in the test with HL-60(TB) leukemia is 10.8 µM; in the test on 786-0 renal, 15 µM; in the test with ACHN renal it was 9.46 µM; in the test on OVCAR-4 ovarian, 4.16 µM. Besides, the TGI in the test on OVCAR-8 ovarian was found to be 39 µM; with U251 CNS it was 28.9 µM; in the test on OVCAR-3 ovarian it was 16.1 µM; in the test on MALME-3M melanoma it was 29.4 µM; with UACC-62 melanoma, 16.4 µM; in the test with SR leukemia, 27.8 µM. Also, the TGI with HL-60(TB) leukemia is 39.5 µM; in the test with 786-0 renal it was 29.3 µM; with ACHN renal, 28.4 µM; with OVCAR-4 ovarian, 16.6 µM.
